Measured values as given in patent US10662222B2, “Drug delivery enhancement agents” (The University of Bath, priority 2014, dated 2020).
Where two headings read alike, the source gives them in different places.

Key:
Caco-2 cell monolayers [1] = experiment: Trans-epithelial electrical resistance (TEER) of Caco-2 monolayers after apical peptide application; format: cell-based, human; conditions: for Efficacy at 5 mM (TEER reduction): apical application to Caco-2 cell monolayers
Protocol: An immortalized human intestinal epithelial cell line (Caco-2) were maintained in DMEM/F12 medium (Gibco, Paisley, UK) supplemented with 10% FBS, 2 mM L-glutamine (Gibco) 100 U/ml penicillin and 100 μg/ml streptomycin (Gibco). Caco-2 cells were seeded at a density of 7×10^4/well on Transwell™ (Corning, N.Y.) polyester membrane filters (12 mm diameter, 0.4 μm pore size). Re-feeding with DMEM (Life Technologies, Paisley, UK) was carried out every second day. Caco-2 monolayers with trans-epithelial electrical resistance (TEER)>350 Ω·cm2 were considered confluent and used in transport assays; fixed paddle electrodes were used to measure TEER (World Precision Instruments, UK).
(§1) Apical to basal flux of 50 mg/ml 4 kDa dextran or 50 mg/ml 70 kDa dextran (Sigma) was performed to assess the impact of PIP peptides on paracellular permeability. Apical compartment volume was 200 μl; at set times the 600 μl basal compartment volume was collected and replaced with fresh HBSS. Apical and basal compartment fluorescence was determined using a Floustar Omega microplate reader (BMG Labtech, Ortenburg, Germany). TEER measurements were made for each well immediately after HBSS replacement. After 3 hr, the apical compartment dextran and peptide solution was removed and replaced with PBS and TEER values were recorded for a further 30 min to assess monolayer recovery.
(§2) TEER values were calculated by subtracting blank filter reading and normalized as a percentage of the initial TEER value for that monolayer. Fluorescent dextran flux used to calculate paracellular permeability was performed as previously described. Blood glucose levels were expressed as a percentage of the baseline glucose levels for each animal. Data were compared to control values using a two-tailed, un-paired Student's T-test.
Peptides were applied apically at a concentration of 5 mM to confluent monolayers of Caco-2 cells grown on semi-permeable inserts (Rubus et al. (1996) J. Pharma. Sci 85:165-169) to assess their ability to affect TJ function (Peterson & Mooseker (1992) J. Cell. Sci. 102(3):581-600). RRVEVKYDRR (peptide #6; peptide 640, SEQ ID NO: 3) reduced the trans-epithelial electrical resistance (TEER) of Caco-2 monolayers with a drop of 50% within 25 min of addition (FIG. 4), and none of the peptides were toxic at this concentration according to MTT assay (Mosman (1983) J. Immunol. Methods 65:55-63). Critically, following gentle washing, RRVEVKYDRR (SEQ ID NO: 3)-treated Caco-2 monolayers TEER values recovered to 80% of their original values within 24 h. A lead candidate, peptide NH2-rrdykvevrr-NH2, (SEQ ID NO: 20) was identified based on the RRVEVKYDRR (SEQ ID NO: 3) sequence but using the retro-inverso configuration with D-configuration amino acids.

Caco-2 cells [2] = tested on: Caco-2 cells
Protocol: (§3) MTT assay: Cell viability was assessed using the 3-(4,5-dimethylthiazol-2-yl)-2,5-diphenyl tetrazolium bromide (MTT; Invitrogen, Paisley, UK) assay. Following exposure of cells to CPP complexes for 72 hours, 0.5 mg/ml MTT was added to the culture medium and incubated with the cells for a further 3 hours. Media was then removed and replaced with DMSO to lyse the cells. Absorbance was then recorded at 550 nm.

Caco-2 monolayers = experiment: Apical to basal flux of fluorescent dextran (4 kDa, 70 kDa) across Caco-2 monolayers; format: cell-based, human; conditions: for transport of paracellular marker 4 kDa fluorescent dextran (4FD): relative to control peptide, FIG. 5
Protocol: as §1, §2

[3] = tested on: myosin light chain (MLC) phosphorylated at Ser19; experiment: PhosphoMLC analysis (Western blot) of intestinal tissue after ILI injection; format: in vivo, rat; conditions: 20 mM peptide
Protocol: After rinsing with ice cold PBS, Caco-2 monolayers or epithelial cells from isolated intestinal tissue were lysed in 3 μL of a protease inhibitor cocktail and 200 μL RIPA buffer and left on ice for 10 min. Isolated intestinal tissue was similarly placed in ice cold PBS for 15 min prior to maceration in a protease inhibitor cocktail and RIPA buffer, being left on ice for 10 min. All cell and tissues lysates were centrifuged at 8000 rpm for 15 min to collect the supernatant, which was stored at −80° C. until use. For Western blots analysis, lysates were separated by SDS-PAGE (12%) run at 220V for 40 min and electro-transferred onto a PDVF membrane at 30V for 70 min using an XCell™ Blot module (Invitrogen). Membranes were blocked using 5% bovine serum albumin in TBS-T (2 M Tris, HCl, pH 7.5, 4 M NaCl and 0.1% Tween 20) for 1 hr. Membranes were washed with water, incubated with primary antibody (anti-myosin light chain (phospho S20) antibody or anti-myosin light chain 2) antibody overnight at 5° C., washed thrice with TBS-T, and then incubated with secondary horseradish […] (HRP)-coupled antibody for 1 hr at room temperature. After washing thrice in TBS-T, HRP activity was detected by ECL (Santa Cruz).
After rinsing with ice cold PBS to remove PIP peptide or control treatment agents, isolated intestinal tissue was placed in ice cold PBS for 15 min prior to addition of 25 μl protease inhibitor cocktail (Fisher), 25 μl phosphatase inhibitor cocktail (Fisher) and 500 μl RIPA buffer (Sigma Aldrich). After 10 min on ice lysates were centrifuged at 8000 rpm for 15 min to collect the supernatant, which was stored at −80° C. until use. For Western blots analysis, lysates were separated by SDS-PAGE (12%) run at 220V for 40 min and electro-transferred onto a PDVF membrane at 30V for 70 min using an XCell™ Blot module (Invitrogen). Membranes were blocked using 5% bovine serum albumin in TBS-T (2 M Tris HCl, pH 7.5, 4 M NaCl and 0.1% Tween 20) for 1 h. Membranes were washed with water, incubated with primary antibody (anti-myosin light chain (phospho S19) antibody (Cell Signalling Technologies) or anti-myosin light chain 2 antibody (Abcam) overnight at 5° C., washed thrice with TBS-T, and then incubated with secondary horseradish […] (HRP)-coupled antibody for 1 h at room temperature. After washing thrice in TBS-T, HRP activity was detected by ECL (Santa Cruz).

Caco-2 cell monolayers [4] = experiment: Trans-epithelial electrical resistance (TEER) of Caco-2 monolayers after apical peptide application; format: cell-based, human; conditions: FIG. 6; for TEER after peptide removal: fresh media to apical compartment after 180 min exposure
[5] = Blood glucose after SC or intraluminal intestinal (ILI) injection of insulin with PIP peptides; format: in vivo, rat
Protocol: Male Wistar rats, bred in house, were 225-275 g (approximately 6-8 weeks old) when placed on study. Rats were housed in groups of 3-5 per cage in a 12/12 hr light/dark cycle. All experiments were conducted during the light phase and carried out using a non-recovery protocol that used continuous isoflurane anesthesia. A 4-5 cm midline abdominal incision was made to expose mid-jejunum to early ileum regions of the small intestine and to provide access to the portal vein for the insertion of a cannula. Solutions of insulin (human recombinant; Sigma) and PIP peptides were prepared in 0.9% saline containing 10 mM citric acid to reduce local proteolysis and mixed 1:1 before injection using a 29-gauge hypodermic needle in a volume of 200 μL/kg (or ˜50 μL, per 250 g rat). The injection site was marked with a permanent marker. The incision was closed with surgical glue. Blood draws were taken from the portal vein as well as systemic circulation over the next two hours to monitor glucose, serum insulin and endotoxin. Control treatment groups included SC injection of insulin […] as well as intestinal injection of PIP peptide without insulin or insulin alone in the phosphate buffered saline (PBS) formulation used for all groups. At the end of a study, a 3-5 mm region about the marked intestine segment was isolated. This tissue was lysed for biochemical assessment of MLC phosphorylation state or fixed, sectioned, and stained with hematoxylin/eosin prior to analysis read by a licensed veterinary pathologist. Subcutaneous (SC) insulin injections (20 μl/kg) were performed in the mid-scapular region and blood glucose was measured in the same manner. All experiments were performed in accordance with the U.K. Animals (Scientific Procedures) Act of 1986, the European Communities Council Directive of 1986 (86/609/EEC), and the University of Bath's ethical review procedures.
as §2

Caco-2 cells [6] = experiment: Cell viability / cytotoxicity, MTT assay
Protocol: as §3

In the case of “NH2-RRK TVKYDRR-NH2 (H-RRKTVKYDRR-NH2) [compound 5]”, the “Efficacy at 5 mM (TEER reduction)” value (Caco-2 cell monolayers [1]; 5 mM) is reported as “No”.
In the case of NH2-RRV EVKYDRR-NH2 [peptide 640], the “cell viability (mitochondrial membrane polarity marker MTS)” value (Caco-2 cells [2]) is reported as “did not affect cell viability”, the “permeability of 4 kDa dextran” value (Caco-2 monolayers; 5 mM) is reported as “failed to affect” and the “transport of paracellular marker 4 kDa fluorescent dextran (4FD)” value (Caco-2 monolayers; 5 mM) is reported as “increased transport of a paracellular marker relative to the control”. The “increase of rate of 4 kDa dextran permeation” value (Caco-2 monolayers; 10 mM apical) was about 3 fold, the “flux of 70 kDa dextran” value (Caco-2 monolayers; concentration not given) was “failed to affect” and the “drop of TEER” value (Caco-2 cell monolayers [1]; 5 mM apical, within 25 min of addition) was 50%. For the same substance, the “Efficacy at 5 mM (TEER reduction)” value (Caco-2 cell monolayers [1]; 5 mM) was “Yes”, the “TEER decrease to % of its initial value” (Caco-2 cell monolayers [1]; 5 mM, FIG. 5) was about 50% and the “loss in TEER” value (Caco-2 cell monolayers [1]; 5 mM, after 180 min of exposure) was about 50%. For the same substance, the “TEER recovery, % of original values” (Caco-2 cell monolayers [1]; after gentle washing, within 24 h) was 80%, the “MLC phosphorylation ratio (MLC to pMLC)” value ([3]; 15 min) was “significantly increased” and the “MLC phosphorylation ratio (MLC to pMLC)” value ([3]; 45 min) was “remained elevated”. For the same substance, the “MLC phosphorylation ratio (MLC to pMLC)” value ([3]; 90 min) was “returning to initial levels”, the “TEER after peptide removal” value (Caco-2 cell monolayers [4]) was “rapid reversal of TEER depression” and the “blood glucose change profile” value ([5]; ILI of 30 IU/kg insulin plus 10 mM peptide) was “much delayed decrease”.
For “NH2-RRV TVKYDRR-NH2 (H-RRVTVKYDRR-NH2) [peptide 1]”, the “Efficacy at 5 mM (TEER reduction)” value (Caco-2 cell monolayers [1]; 5 mM) was “No”.
In the case of “NH2-RRV TVKYKRR-NH2 (H-RRVTVKYKRR-NH2) [compound 3]”, the “Efficacy at 5 mM (TEER reduction)” value (Caco-2 cell monolayers [1]; 5 mM) is reported as “No”.
For “NH2-RRVpTVKYDRR-NH2 (RRVTVKYDRR; HELM PEPTIDE1{R.R.V.[C[C@@H](OP(=O)(O)O)[C@H](N[*:1])C(=O)[*:2]].V.K.Y.D.R.R.[am]}$$$$V2.0; SMILES CC(C)[C@H](NC(=O)[C@H](CCCNC(=N)N)NC(=O)[C@@H](N)CCCNC(=N)N)C(=O)N[C@H](C(=O)N[C@H](C(=O)N[C@@H](CCCCN)C(=O)N[C@@H](Cc1ccc(O)cc1)C(=O)N[C@@H](CC(=O)O)C(=O)N[C@@H](CCCNC(=N)N)C(=O)N[C@@H](CCCNC(=N)N)C(N)=O)C(C)C)[C@@H](C)OP(=O)(O)O) [peptide 2]”, the “Efficacy at 5 mM (TEER reduction)” value (Caco-2 cell monolayers [1]; 5 mM) was “No”.
In the case of “NH2-RRVpTVKYKRR-NH2 (RRVTVKYKRR; HELM PEPTIDE1{R.R.V.[C[C@@H](OP(=O)(O)O)[C@H](N[*:1])C(=O)[*:2]].V.K.Y.K.R.R.[am]}$$$$V2.0; SMILES CC(C)[C@H](NC(=O)[C@H](CCCNC(=N)N)NC(=O)[C@@H](N)CCCNC(=N)N)C(=O)N[C@H](C(=O)N[C@H](C(=O)N[C@@H](CCCCN)C(=O)N[C@@H](Cc1ccc(O)cc1)C(=O)N[C@@H](CCCCN)C(=O)N[C@@H](CCCNC(=N)N)C(=O)N[C@@H](CCCNC(=N)N)C(N)=O)C(C)C)[C@@H](C)OP(=O)(O)O) [compound 4]”, the “Efficacy at 5 mM (TEER reduction)” value (Caco-2 cell monolayers [1]; 5 mM) is reported as “No”.
For “RKAKYQYRRK (drug delivery enhancement peptide) [peptide 250]”, the “transport of paracellular marker 4 kDa fluorescent dextran (4FD)” value (Caco-2 monolayers; 5 mM) was “increased transport of a paracellular marker relative to the control”, the “4 kDa dextran flux rates, comparison” value (Caco-2 monolayers; 10 mM) was 10 mM peptide 640 was equal to 10 mM peptide 250 and the “4 kDa dextran flux rate compared to control” value (Caco-2 monolayers; 20 mM) was about 6 fold. The “increase of 70 kDa dextran flux” value (Caco-2 monolayers; 20 mM) was about 3 fold, the “TEER change compared with peptide 640” value (Caco-2 cell monolayers [1]; 5 mM, FIG. 5) was “slower and less pronounced drop in TEER” and the “MLC phosphorylation ratio (MLC to pMLC)” value ([3]; 15 min) was “no significant changes”. For the same substance, the “MLC phosphorylation ratio (MLC to pMLC)” value ([3]; 45 min) was “elevated”, the “MLC phosphorylation ratio (MLC to pMLC)” value ([3]; 90 min) was “returning to basal levels” and the TEER response (Caco-2 cell monolayers [4]; 20 mM peptide 250 versus 10 mM peptide 640) was “very comparable response to 10 mM peptide 640”. For the same substance, the “TEER after peptide removal” value (Caco-2 cell monolayers [4]) was “rapid reversal of TEER depression”, the blood sugar recovery ([5]; ILI of 30 IU/kg insulin plus 10 mM peptide, by 90 min) was 70-80% and the “drop in blood glucose” value ([5]; ILI of 30 IU/kg insulin plus 20 mM peptide, by 30 min, remained for the remainder of the experiment) was 40%. For the same substance, the “cell viability (mitochondrial membrane polarity marker MTS)” value (Caco-2 cells [6]; concentrations that modulated TEER and paracellular permeability) was “did not affect cell viability” and the “cytotoxicity using the MTT assay” value (Caco-2 cells [6]; data not shown) was “lack of cytotoxicity”.
For insulin, the “decrease in blood glucose” value ([5]; SC injection of 3 IU/kg insulin) was about 50%, the “time at which blood glucose began to recover” value ([5]; SC injection of insulin) was about 90 min and the “time of blood glucose nadir” value ([5]; SC injection of insulin) was about 30 min. The “effect on blood sugar” value ([5]; intraluminal injection of 30 IU/kg insulin alone) was “no effect”.
